According to patent US5439884A, “Method of controlling fertilization using bombesin or its agonist” (Oregon Regional Primate Research Center, priority 1992, dated 1995):
Where a SMILES comes first, the peptide text is derived from it. [ ]: non-standard residue; d: D form. dPhe(F5) = N[C@H](Cc1c(F)c(F)c(F)c(F)c1F)C(=O)O

Tests used:
sperm [1] = experiment: acrosome reaction, analogs alone or in the presence of GRP (sperm species not stated); assay type: cell-based; conditions: for % Acrosome Reacted, Analog + GRP: analog 50 nM + GRP 2 nM; for % Acrosome Reacted, Analog: analog alone, final concentration 50 nM, blank control 6.000 ± .707
Experimental: (§1) The acrosome reaction, which is necessary for sperm to fertilize the egg, was induced by the following methods.
(§2) For monkeys, sperm was collected, washed twice in balanced salts, resuspended in lactate/bicarbonate and dibutyryl cAMP, and then incubated for 60 minutes. […] See Wolf, D. P. et al. Mol. Reprod. Dev. 27:261-280 (1990); Lanzendorf, S. E. et al. Mol. Reprod. Dev. 25:61-66 (1990); and Wolf D. P. et al. Biol. Reprod. 41:335-346 (1989). All of these three publications are hereby incorporated by reference.
(§3) To measure the effects of bombesin on the acrosome reaction, capacitation was conducted in the presence or absence of bombesin. After incubation, samples of sperm were removed to determine the percentage of sperm which had undergone the acrosome reaction as measured with an acrosome specific monoclonal antibody and FITC fluorescence [see Wolf, D. P. Am. J. Reprod. Immunol. 20:106-113 (1989), which is hereby incorporated by reference].
[…] bombesin analogs, BIM 26136, BIM 26187, BIM 26189, BIM 26224, BIM 26226, BIM 26244, and BIM 26028, were used to test their effect on the acrosome reaction, either alone or in the presence GRP, in a manner described above.

monkey sperm = experiment: acrosome reaction in monkey sperm (acrosome specific monoclonal antibody, FITC fluorescence); assay type: cell-based, monkeys (rhesus); conditions: for stimulation of the spontaneous acrosome reaction: monkeys (rhesus)
Experimental: as §1, §2, §3

human sperm = experiment: acrosome reaction in human sperm; assay type: cell-based; conditions: for stimulation of the spontaneous acrosome reaction: humans
Experimental: as §1, §3

sperm [2] = conditions: high doses, 1 μg/ml; cited from earlier work
new GRP receptor = experiment: response of new GRP receptor in transfected cells and Xenopus oocytes; assay type: cell-based, rat
From the text: A new GRP receptor, which is expressed in very high levels in rat sperm, has recently been cloned. cDNA encoding this receptor was used to determine if this new GRP receptor is expressed in primate sperm.

CC(C)C[C@H](NC(=O)[C@H](CC(C)C)NC(=O)[C@H](Cc1c[nH]cn1)NC(=O)CNC(=O)[C@@H](NC(=O)[C@H](C)NC(=O)[C@H](Cc1c[nH]c2ccccc12)NC(=O)[C@H](CCC(N)=O)NC(=O)[C@H](N)Cc1ccccc1)C(C)C)C(N)=O [BIM 26137, H-D-Phe-Gln-Trp-Ala-Val-Gly-His-Leu-Leu-NH2]
% Acrosome Reacted, Analog + GRP (sperm [1]): 7.000 ± .707% | % Acrosome Reacted, Analog (sperm [1]): 7.000 ± .707%

CCCC[C@H](NC(=O)[C@H](Cc1ccccc1)NC(=O)[C@H](Cc1c[nH]cn1)NC(=O)CNC(=O)[C@@H](NC(=O)[C@H](C)NC(=O)[C@H](Cc1c[nH]c2ccccc12)NC(=O)[C@H](CCC(N)=O)NC(=O)[C@H](N)Cc1ccccc1)C(C)C)C(N)=O [BIM 26224, H-D-Phe-Gln-Trp-Ala-Val-Gly-His-Phe-Nle-NH2]
% Acrosome Reacted, Analog + GRP (sperm [1]): 6.000 ± 1.000% | % Acrosome Reacted, Analog (sperm [1]): 9.000 ± 1.581%

COC(=O)[C@H](CC(C)C)NC(=O)[C@H](Cc1c[nH]cn1)NC(=O)[C@@H](C)NC(=O)[C@@H](NC(=O)[C@H](C)NC(=O)[C@H](Cc1c[nH]c2ccccc12)NC(=O)[C@H](CCC(N)=O)NC(=O)[C@H](N)Cc1c(F)c(F)c(F)c(F)c1F)C(C)C [BIM 26226, H-D-F5 -Phe-Gln-Trp-Ala-Val-D-Ala-His-Leu-OCH3] (H-[dPhe(F5)]QWAV[dA]HL-OMe)
% Acrosome Reacted, Analog + GRP (sperm [1]): 12.000 ± .707% | % Acrosome Reacted, Analog (sperm [1]): 9.000 ± 1.780%

CSCC[C@H](NC(=O)[C@H](CC(C)C)NC(=O)[C@H](Cc1cnc[nH]1)NC(=O)CNC(=O)[C@@H](NC(=O)[C@H](C)NC(=O)[C@H](Cc1c[nH]c2ccccc12)NC(=O)[C@H](CCC(N)=O)NC(=O)[C@H](CC(N)=O)NC(=O)CNC(=O)[C@H](CC(C)C)NC(=O)[C@H](CCCN=C(N)N)NC(=O)[C@H](CCC(N)=O)NC(=O)[C@@H]1CCC(=O)N1)C(C)C)C(N)=O [bombesin, H-pGlu-Gln-Arg-Leu-Gly-Asn-Gln-Trp-Ala-Val-Gly-His-Leu-Met-NH2]
increase in the acrosome reaction (monkey sperm; monkey sperm, concentrations as low as 5 nM bombesin, FIG. 2): 2 fold | stimulation of the spontaneous acrosome reaction (monkey sperm): stimulate | increase in the acrosome reaction (human sperm; human sperm, concentrations as low as 5 nM bombesin, FIG. 2): 2 fold | stimulation of the spontaneous acrosome reaction (human sperm): stimulate

CC(=O)[C@H]1CC[C@H]2[C@@H]3CCC4=CC(=O)CC[C@]4(C)[C@H]3CC[C@]12C [progesterone]
induction of the acrosome reaction (sperm [2]): induce the acrosome reaction

H-Ala-Pro-Val-Ser-Val-Gly-Gly-Gly-Thr-Val-Leu-Ala-Lys-Met-Tyr-Pro-Arg-Gly-Asn-His-Trp-Ala-Val-Gly-His-Leu-Met-NH2 (H-APVSVGGGTVLAKMYPRGNHWAVGHLM-NH2) [GRP]
stimulation of the spontaneous acrosome reaction (monkey sperm): stimulate | stimulation of the spontaneous acrosome reaction (human sperm): stimulate | concentration at which active in stimulating the acrosome reaction (sperm [1]): 1 nM | % Acrosome Reacted, GRP without analog (blank control line, GRP column) (sperm [1]; GRP final concentration 2 nM, no analog): 18.000 ± 3.629% | reaction of the new receptor to the peptide (new GRP receptor): reacted only weakly

H-D-Nal-Gln-Trp-Ala-Val-Gly-His-Leu-.psi.(CH2 -NH)-Phe-NH2 [BIM 26136]
rank in inducing the acrosome reaction among the analogs tested (sperm [1]; Table 1, 50 nM): most potent | % Acrosome Reacted, Analog + GRP (sperm [1]): 10.000 ± 1.225% | % Acrosome Reacted, Analog (sperm [1]): 11.000 ± .408%

H-D-Phe-Gln-Trp-Ala-Val-Gly-His-Leu-Cpa-NH2 [BIM 26169]
% Acrosome Reacted, Analog + GRP (sperm [1]): 6.000 ± .408% | % Acrosome Reacted, Analog (sperm [1]): 10.000 ± .913%

Neuromedin B
reaction of the new receptor to the peptide (new GRP receptor): reacted only weakly
